Data: ChEMBL document CHEMBL1142892, “Synthesis and antitumor activity of indolylpyrimidines: marine natural product meridianin D analogues” (Bioorg Med Chem, 2007)
In brackets after ≈: the same amount, converted by molar mass. Activity calls are given as the source filed them. No cut-off for these calls is given here.

Columns and labels:
Assay type in all cases: functional, cell-based
HepG2 = assay: Cytotoxicity against human HEPG2 cells after 48 hrs by SRB assay
MCF7 = assay: Cytotoxicity against human MCF7 after 48 hrs cells by SRB assay
U-251 = assay: Cytotoxicity against human U251 cells after 48 hrs by SRB assay
HeLa = assay: Cytotoxicity against human HeLa cells after 48 hrs by SRB assay

Structure (SMILES) | Activity (HepG2) | IC50 (MCF7) [µg/mL] | Activity (U-251) | IC50 (HeLa) [µg/mL]
N/N=C(\N)c1cnc(N)nc1-c1c[nH]c2ccccc12 | inactive | 0.25 (≈ 0.935 µM) | inactive | –
Nc1nccc(-c2c[nH]c3ccccc23)n1 | inactive | – | inactive | –
N#Cc1cnc(N)nc1-c1c[nH]c2ccccc12 | inactive | 0.85 (≈ 3.61 µM) | inactive | 2.65 (≈ 11.3 µM)
Nc1ncc(C(=O)O)c(-c2c[nH]c3ccccc23)n1 | inactive | 0.75 (≈ 2.95 µM) | inactive | –
